Results published in US10703756B2, “Pyrrolo[2,3-D]pyrimidinyl, pyrrolo[2,3-B]pyrazinyl, pyrrolo[2,3-B]pyridinyl acrylamides and epoxides thereof” (Pfizer Inc., priority 2015, dated 2020).

Tests used:
[1] = biological target: T1, JAK3 enzyme (Homo sapiens, UniProt P52333); experiment: JAK Caliper Enzyme Assay at 4 μM ATP; assay type: biochemical
T1 sequence (P52333 1-1124): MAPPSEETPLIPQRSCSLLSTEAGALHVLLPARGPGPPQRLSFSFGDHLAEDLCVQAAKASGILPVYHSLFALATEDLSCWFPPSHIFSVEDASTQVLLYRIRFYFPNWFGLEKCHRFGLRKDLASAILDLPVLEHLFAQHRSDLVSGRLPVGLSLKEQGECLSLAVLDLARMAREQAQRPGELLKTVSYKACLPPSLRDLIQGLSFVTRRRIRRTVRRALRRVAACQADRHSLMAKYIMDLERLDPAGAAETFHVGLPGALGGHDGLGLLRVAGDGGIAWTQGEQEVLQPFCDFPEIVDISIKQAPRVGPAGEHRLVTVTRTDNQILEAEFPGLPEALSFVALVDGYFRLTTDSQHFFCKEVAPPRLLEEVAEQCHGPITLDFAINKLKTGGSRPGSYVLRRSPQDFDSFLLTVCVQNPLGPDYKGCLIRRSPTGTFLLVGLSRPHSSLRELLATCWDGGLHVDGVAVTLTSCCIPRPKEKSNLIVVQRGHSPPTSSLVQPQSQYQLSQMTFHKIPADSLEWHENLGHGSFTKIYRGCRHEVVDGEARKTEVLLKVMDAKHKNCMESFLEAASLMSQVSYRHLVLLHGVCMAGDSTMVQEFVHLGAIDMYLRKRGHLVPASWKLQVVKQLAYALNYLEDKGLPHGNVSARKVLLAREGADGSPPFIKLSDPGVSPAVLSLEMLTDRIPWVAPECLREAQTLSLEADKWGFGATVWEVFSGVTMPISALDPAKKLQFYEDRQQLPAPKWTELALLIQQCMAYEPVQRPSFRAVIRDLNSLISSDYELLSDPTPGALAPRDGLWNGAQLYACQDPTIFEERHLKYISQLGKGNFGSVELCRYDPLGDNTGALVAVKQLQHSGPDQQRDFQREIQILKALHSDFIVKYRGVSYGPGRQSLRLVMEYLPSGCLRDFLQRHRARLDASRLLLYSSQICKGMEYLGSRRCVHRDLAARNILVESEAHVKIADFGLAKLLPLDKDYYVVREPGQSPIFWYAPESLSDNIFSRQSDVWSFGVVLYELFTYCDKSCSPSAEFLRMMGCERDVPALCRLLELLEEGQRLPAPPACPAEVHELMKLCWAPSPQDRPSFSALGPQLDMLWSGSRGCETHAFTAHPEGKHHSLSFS
How it was run: (§1)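 Compound tested as 11-point half-log DMSO dilution series (top 600 μM in DMSO, a dilution-plate level). Enzyme level and time set for 20%-30% peptide phosphorylation; phosphorylated and unphosphorylated peptide separated and quantified by Caliper LC3000 mobility shift.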

[2] = biological target: T1, JAK3 enzyme; experiment: JAK Caliper Enzyme Assay at 1 mM ATP; assay type: biochemical
How it was run: as §1

[3] = test system: IL-15 induced P-STAT5 in human PBMC; experiment: PBMC IL-15 Induced P-STAT5; assay type: cell-based; conditions: human PBMC, IL-15 final 41 ng/mL; read-out: PBMC IL15_pSTAT5_IC50
Protocol: PBMC IL-15 Induced P-STAT5
Test compounds were serially diluted in DMSO, with further dilution of the compounds in RPMI 1640 medium (Invitrogen #72400) supplemented with 10 mM HEPES, pH 7.4, 1 mM sodium pyruvate, and Penicillin/Streptomycin (by adding 5 μL compound/DMSO in 120 μL Dulbecco's Phosphate-Buffered Saline (D-PBS, 1×), [DMSO]=4%, and mixing the solution by repeated pipetting, 6×). IL-15 was diluted to the concentration at 820 ng/mL in RPMI 1640 medium.
Frozen human PBMC (200-250 million cells/vial) was thawed at 37° C. The cells were transferred to 10 mL warm medium in a 50-mL conical tube, and centrifuged at 1,200 RPM at room temperature for 5 min. The supernatant was aspirated. Cells were suspended in 3 mL warm human plasma and incubated at 37° C. in a tissue culture incubator for 1.5 to 2 h. After adding 47 ml D-PBS (37° C.) to PBMC/FBS suspension, centrifuging at 1,200 RPM at room temperature for 5 min, and aspirating the supernatant, the cells were resuspended in 20 mL warm RPMI medium. Ninety μL of cell suspension were pipetted per well in a 96-well, deep-well, V-bottom plate, and the plate was incubated at 37° C. for 30 min. Five μL of compound were transferred to each well (final 0.2% DMSO), vortex gently and incubate at 37° C. for 15 min; 5 μL 4% DMSO/PBS were added to the control wells. After adding 5 μL 820 ng/mL of human IL-15 (final 41 ng/mL) to each well (5 μL PBS to the control wells), vortexing gently and incubating at 37° C. for 15 min, followed by 0.3 mL 1% paraformaldehyde/PBS (37° C.) to each well, and incubating the plate at room temperature for 15 min, the plates were centrifuged at 1,200 RPM (Beckman GS-6R or Sorvall Legend) at room temperature for 5 min, and the supernatant was aspirated using a 8-channel or 12-channel manifold. After adding 0.8 mL staining buffer per well, the plates were centrifuged at 1,200 RPM (Beckman GS-6R or Sorvall Legend) at room temperature for 5 min, and again the supernatant was aspirated using a 8-channel or 12-channel manifold. The plate was vortexed, and 0.35 mL 90% methanol/10% H2O (−20° C.) was added per well, and the plate incubated on ice for 20 min. After again adding 0.8 mL staining buffer per well, the plates were centrifuged at 1,200 RPM (Beckman GS-6R or Sorvall Legend) at room temperature for 5 min, and again the supernatant was aspirated using a 8-channel or 12-channel manifold, and then 0.8 mL Staining buffer was added per well. After once again adding 0.8 mL staining buffer per well, the plates were centrifuged at 1,200 RPM (Beckman GS-6R or Sorvall Legend) at room temperature for 5 min, and again the supernatant was aspirated using a 8-channel or 12-channel manifold. Then the plate was vortexed, and 250 μL/well of Alexa Fluor® 647 conjugated anti-STAT5 antibody ([…]; […]) was added, and the plate was incubated at 4° C. overnight in the dark. Samples of 250 μL/well were transferred to a 96-well U-bottom plate, and the FACS analysis was performed gating on total lymphocytes. Samples were analyzed using a BD Calibur™ or BD FACSCanto™ flow cytometer equipped with the BD High Throughput Sampler.

Structure (SMILES) | IC50 [1] [nM] | IC50 [2] [nM] | IC50 [3] [nM]
C=CC(=O)N1CCC(Nc2cnc3[nH]cc(C(=O)NCc4ccc(-n5cccn5)cc4)c3n2)CC1 [Example 183, 2-[(1-acryloylpiperidin-4-yl)amino]-N-[4-(1H-pyrazol-1-yl)benzyl]-5H-pyrrolo[2,3-b]pyrazine-7-carboxamide] | 1.03 | 41 | 1590
C=CC(=O)N1CCN(c2cnc3[nH]cc(C(=O)NC4CC(F)(F)C4)c3n2)C[C@@H]1CC(C)C [Example 273, 2-[(3S)-4-acryloyl-3-(2-methylpropyl)piperazin-1-yl]-N-(3,3-difluorocyclobutyl)-5H-pyrrolo[2,3-b]pyrazine-7-carboxamide] | 1.59 | 204 | 389
C=CC(=O)N1CCC(C)(Nc2cnc3[nH]cc(C(=O)N[C@H](C)COC)c3n2)CC1 [Example 335, 2-[(1-acryloyl-4-methylpiperidin-4-yl)amino]-N-[(2R)-1-methoxypropan-2-yl]-5H-pyrrolo[2,3-b]pyrazine-7-carboxamide] | 0.262 | 57 | 849
C=CC(=O)N1CC[C@@H](Nc2cnc3[nH]cc(C(=O)NCC)c3n2)[C@H](OC)C1 (single isomer, unassigned) [Example 26] | 1.65 | 99 | 1930
C=CC(=O)N1CCC(C)(Nc2cnc3[nH]cc(C(=O)NCC4CC(F)(F)C4)c3n2)CC1 [Example 306, 2-[(1-acryloyl-4-methylpiperidin-4-yl)amino]-N-[(3,3-difluorocyclobutyl)methyl]-5H-pyrrolo[2,3-b]pyrazine-7-carboxamide] | 0.705 | 107 | 1570
C=CC(=O)N1CC[C@@H](Nc2cnc3[nH]cc(C(=O)NCC(C)(C)C)c3n2)[C@@H](OC)C1 [Example 300, 2-{[(3S,4R)-1-acryloyl-3-methoxypiperidin-4-yl]amino}-N-(2,2-dimethylpropyl)-5H-pyrrolo[2,3-b]pyrazine-7-carboxamide] | 0.69 | 92 | 700
C=CC(=O)N1CCN(c2cnc3[nH]cc(C(=O)N[C@@H](CC)COC)c3n2)CC1(C)C [Example 135, 2-(4-acryloyl-3,3-dimethylpiperazin-1-yl)-N-[(2S)-1-methoxybutan-2-yl]-5H-pyrrolo[2,3-b]pyrazine-7-carboxamide] | 1.49 | 168 | 759
C=CC(=O)N1CC[C@H](Nc2cnc3[nH]cc(C(=O)N[C@@H]4C[C@H]4C(F)(F)F)c3n2)[C@H](OC)C1 [Example 271, 2-{[(3R,4S)-1-acryloyl-3-methoxypiperidin-4-yl]amino}-N-[(1R,2R)-2-(trifluoromethyl)cyclopropyl]-5H-pyrrolo[2,3-b]pyrazine-7-carboxamide] | 0.676 | 144 | 1140
C=CC(=O)N1CC[C@H](Nc2cnc3[nH]cc(C(=O)N[C@H](C)COC)c3n2)C[C@@H]1C (stereo in doubt) [Example 354, 2-(((2S,4S)-1-Acryloyl-2-methylpiperidin-4-yl)amino)-N—((R)-1-methoxypropan-2-yl)-5H-pyrrolo[2,3-b]pyrazine-7-carboxamide] | 3.41 | 261 | 4520
C=CC(=O)N1CCN(c2cnc3[nH]cc(C(=O)N[C@H](C)CC#N)c3n2)CC1(C)C [Example 152, 2-(4-acryloyl-3,3-dimethylpiperazin-1-yl)-N-[(2R)-1-cyanopropan-2-yl]-5H-pyrrolo[2,3-b]pyrazine-7-carboxamide] | 1.97 | 256 | 510
C=CC(=O)N1CCN(c2cnc3[nH]cc(C(=O)NCC(C)(F)F)c3n2)CC1(C)C [Example 275, 2-(4-acryloyl-3,3-dimethylpiperazin-1-yl)-N-(2,2-difluoropropyl)-5H-pyrrolo[2,3-b]pyrazine-7-carboxamide] | 3.19 | 418 | 1030

Further lines, with some results ahead:

IC50 [1] [nM] | IC50 [2] [nM] | Structure (SMILES) | IC50 [3] [nM]
0.782 | 97 | C=CC(=O)N1CCC(Oc2cnc3[nH]cc(C(=O)NCC(C)(F)F)c3n2)CC1 [Example 215, 2-[(1-acryloylpiperidin-4-yl)oxy]-N-(2,2-difluoropropyl)-5H-pyrrolo[2,3-b]pyrazine-7-carboxamide] | 619
0.526 | 63 | C=CC(=O)N1CCC(C)(Nc2cnc3[nH]cc(C(=O)NCC(C)CC(F)(F)F)c3n2)CC1 (racemic) [Example 270, Racemic-2-[(1-acryloyl-4-methylpiperidin-4-yl)amino]-N-(4,4,4-trifluoro-2-methylbutyl)-5H-pyrrolo[2,3-b]pyrazine-7-carboxamide] | 670
1.97 | 272 | C=CC(=O)N1CCC(Oc2cnc3[nH]cc(C(=O)N[C@@H](C(C)C)[C@H](O)C(F)(F)F)c3n2)CC1 [Example 217, 2-[(1-acryloylpiperidin-4-yl)Oxy]-N-[(2S,3S)-1,1,1-trifluoro-2-hydroxy-4-methylpentan-3-yl]-5H-pyrrolo[2,3-b]pyrazine-7-carboxamide] | 2090
49.1 | 3060 | C=CC(=O)N1CC[C@H](Oc2cnc3[nH]cc(C(=O)NCC)c3n2)[C@@H](C)C1 (single isomer, unassigned) [Example 48] | 6690
3.38 | 209 | C=CC(=O)N1CC[C@@H](Oc2cnc3[nH]cc(C(=O)NCC)c3n2)[C@H](C)C1 (racemic) [Example 46, Trans-racemic-2-{[1-acryloyl-3-methylpiperidin-4-yl]oxy}-N-ethyl-5H-pyrrolo[2,3-b]pyrazine-7-carboxamide] | 871
